Structures are written as SMILES.

The values that follow come from patent US8455475B2 (Gruenenthal GmbH, priority 2009, dated 2013).

The assay deals with T1, rat B1R (bradykinin receptor 1) (Rattus norvegicus, UniProt P97583).
T1 construct: expressed in transfected cells; host or cells: CHO K1 cells
T1 sequence (P97583 1-337): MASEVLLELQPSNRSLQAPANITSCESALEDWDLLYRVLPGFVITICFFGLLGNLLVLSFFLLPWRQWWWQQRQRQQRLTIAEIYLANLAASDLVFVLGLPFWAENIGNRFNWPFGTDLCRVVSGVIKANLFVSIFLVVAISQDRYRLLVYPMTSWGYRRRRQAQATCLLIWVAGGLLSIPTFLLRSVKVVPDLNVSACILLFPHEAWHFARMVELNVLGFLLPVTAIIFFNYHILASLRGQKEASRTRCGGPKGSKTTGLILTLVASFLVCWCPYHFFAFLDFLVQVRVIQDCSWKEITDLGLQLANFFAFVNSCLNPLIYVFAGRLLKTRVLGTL
In words: FLIPR Ca2+ assay (Fluo-4) on CHO K1 cells stably transfected with the B1R gene of the rat (rB1R cells): % inhibition at 10 μM / IC50, agonist Des-Arg9-bradykinin. In kind it is cell-based. The following applies: CHO-K1, rat B1R. The method, boiled down:
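Loading with Fluo-4 occurs for 60 min at 37 °C, or alternatively in buffer A, before FLIPR measurement. Compounds are applied, incubated 10–20 min, and then the EC80 agonist is added. Antagonism appears as reduced peak Ca2+ signal relative to maximal inhibition.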
As to `CCC(CC)CN1CCC2(CC1)CCN(C(=O)Cc1ccc3c(c1)C(NC(=O)c1ccccc1Cl)CC3)C2` (centres unmarked) [IND_CC-806, 2-Chloro-N-[6-[2-[8-(2-ethyl-butyl)-3,8-diazaspiro[4.5]decan-3-yl]-2-oxo-ethyl]-2,3-dihydro-1H-inden-1-yl]-benzamide], the inhibition at 10 µM came out at 75%. To `O=C(NC1CCc2ccc(C(=O)N3CCC4(CC3)CCN(c3ccncc3)C4)cc21)C1CCCC1` (centres unmarked) [IND_CC-393, N-[6-(2-Pyridin-4-yl-2,8-diazaspiro[4.5]decane-8-carbonyl)-2,3-dihydro-1H-inden-1-yl]-cyclopentanecarboxylic acid amide] belongs 103%. For `N#Cc1ccccc1S(=O)(=O)N1CCC2(CCN(C(=O)c3ccc4c(c3)C(NC(=O)c3ccccc3Cl)CC4)C2)CC1` (centres unmarked) [IND_CC-501, 2-Chloro-N-[6-[8-[(2-cyano-phenyl)sulfonyl]-2,8-diazaspiro[4.5]decane-2-carbonyl]-2,3-dihydro-1H-inden-1-yl]-benzamide], the inhibition at 10 µM stood at 56%. To `O=C(NC1CCc2ccc(C(=O)N3CCC4(CCN(Cc5c[nH]cn5)CC4)C3)cc21)c1cc(C(F)(F)F)ccc1Cl` (centres unmarked) [IND_CC-631, 2-Chloro-N-[6-[8-(1H-imidazol-4-yl-methyl)-2,8-diazaspiro[4.5]decane-2-carbonyl]-2,3-dihydro-1H-inden-1-yl]-5-(trifluoromethyl)-benzamide] belongs 57%; to `O=C(NC1CCc2ccc(C(=O)N3CCC4(CC3)CCN(c3ccncc3)C4)cc21)c1c(F)cccc1F` (centres unmarked) [IND_CC-385, 2,6-Difluoro-N-[6-(2-pyridin-4-yl-2,8-diazaspiro[4.5]decane-8-carbonyl)-2,3-dihydro-1H-inden-1-yl]-benzamide], 104%. Take `CCn1cc(CN2CCC3(CC2)CCN(C(=O)c2ccc4c(c2)C(NC(=O)c2cccc(Cl)c2Cl)CC4)C3)c(C)n1` (centres unmarked) [IND_CC-742, 2,3-Dichloro-N-[6-[8-[(1-ethyl-3-methyl-1H-pyrazol-4-yl)-methyl]-2,8-diazaspiro[4.5]decane-2-carbonyl]-2,3-dihydro-1H-inden-1-yl]-benzamide]: the inhibition at 10 µM was found to be 50%. To `N#Cc1cccc(CN2CCC3(CC2)CCN(C(=O)c2ccc4c(c2)C(NC(=O)c2c(F)cccc2Cl)CC4)CC3)c1` (centres unmarked) [IND_CC-800, 2-Chloro-N-[6-[9-[(3-cyano-phenyl)-methyl]-3,9-diazaspiro[5.5]undecane-3-carbonyl]-2,3-dihydro-1H-inden-1-yl]-6-fluoro-benzamide] belongs 97%; to `Cc1cc(F)cc(C)c1S(=O)(=O)NC1CCc2ccc(C(=O)N3CCC4(CC3)CCN(c3ccncc3)C4)cc21` (centres unmarked) [IND_CC-356, 4-Fluoro-2,6-dimethyl-N-[6-(2-pyridin-4-yl-2,8-diazaspiro[4.5]decane-8-carbonyl)-2,3-dihydro-1H-inden-1-yl]-benzenesulfonic acid amide], 69%; to `O=C(NC1CCc2ccc(C(=O)N3CCC4(CCN(Cc5cc(F)ccc5F)CC4)C3)cc21)c1ccccc1Cl` (centres unmarked) [IND_CC-543, 2-Chloro-N-[6-[8-[(2,5-difluoro-phenyl)-methyl]-2,8-diazaspiro[4.5]decane-2-carbonyl]-2,3-dihydro-1H-inden-1-yl]-benzamide], 102%. In the case of `O=C(NC1CCc2ccc(C(=O)N3CCC4(CCN(Cc5ccc(F)cc5F)CC4)CC3)cc21)c1cc(C(F)(F)F)ccc1Cl` (centres unmarked) [IND_CC-647, 2-Chloro-N-[6-[9-[(2,4-difluoro-phenyl)-methyl]-3,9-diazaspiro[5.5]undecane-3-carbonyl]-2,3-dihydro-1H-inden-1-yl]-5-(trifluoromethyl)-benzamide], the inhibition at 10 µM was determined as 73%. To `CSc1ncccc1C(=O)N1CCC2(CCN(C(=O)c3ccc4c(c3)C(NC(=O)c3ccccc3Cl)CC4)CC2)CC1` (centres unmarked) [IND_CC-595, 2-Chloro-N-[6-[9-(2-methylsulfanyl-pyridine-3-carbonyl)-3,9-diazaspiro[5.5]undecane-3-carbonyl]-2,3-dihydro-1H-inden-1-yl]-benzamide] belongs 91%. To `O=C(NC1CCc2ccc(C(=O)N3CCC4(CCN(CCc5ccccc5)CC4)CC3)cc21)c1cc(C(F)(F)F)ccc1Cl` (centres unmarked) [IND_CC-701, 2-Chloro-N-[6-(9-phenethyl-3,9-diazaspiro[5.5]undecane-3-carbonyl)-2,3-dihydro-1H-inden-1-yl]-5-(trifluoromethyl)-benzamide] belongs 96%; to `N#Cc1cccc(CN2CCC3(CC2)CCN(C(=O)c2ccc4c(c2)C(NC(=O)c2cc(Cl)ccc2F)CC4)CC3)c1` (centres unmarked) [IND_CC-654, 5-Chloro-N-[6-[9-[(3-cyano-phenyl)-methyl]-3,9-diazaspiro[5.5]undecane-3-carbonyl]-2,3-dihydro-1H-inden-1-yl]-2-fluoro-benzamide], 60%; to `O=C(NC1CCc2ccc(C(=O)N3CCC4(CCN(Cc5ccccn5)CC4)CC3)cc21)c1cc(C(F)(F)F)ccc1Cl` (centres unmarked) [IND_CC-640, 2-Chloro-N-[6-[9-(pyridin-2-yl-methyl)-3,9-diazaspiro[5.5]undecane-3-carbonyl]-2,3-dihydro-1H-inden-1-yl]-5-(trifluoromethyl)-benzamide], 73%. To `COc1cccc(F)c1CN1CCC2(CC1)CCN(C(=O)c1ccc3c(c1)C(NC(=O)c1cc(C(F)(F)F)ccc1Cl)CC3)C2` (centres unmarked) [IND_CC-637, 2-Chloro-N-[6-[8-[(2-fluoro-6-methoxy-phenyl)-methyl]-2,8-diazaspiro[4.5]-decane-2-carbonyl]-2,3-dihydro-1H-inden-1-yl]-5-(trifluoromethyl)-benzamide] belongs 69%.

Take `CC1(C)Cc2ccc(C(=O)N3CCC4(CC3)CCN(c3ccncc3)CC4)cc2C1NC(=O)c1cc(Cl)ccc1C(F)(F)F` (centres unmarked) [IND_CC-314, 5-Chloro-N-[2,2-dimethyl-6-(9-pyridin-4-yl-3,9-diazaspiro[5.5]undecane-3-carbonyl)-1,3-dihydro-inden-1-yl]-2-(trifluoromethyl)-benzamide]: the inhibition at 10 µM is 80%. `Cn1cncc1CN1CCC2(CC1)CCN(C(=O)c1ccc3c(c1)C(NC(=O)c1c(F)cccc1Cl)CC3)CC2` (centres unmarked) [IND_CC-796, 2-Chloro-6-fluoro-N-[6-[9-[(3-methyl-3H-imidazol-4-yl)-methyl]-3,9-diazaspiro[5.5]undecane-3-carbonyl]-2,3-dihydro-1H-inden-1-yl]-benzamide]: the inhibition at 10 µM stood at 66%. For `CN(C1CCc2ccc(C(=O)N3CCC4(CC3)CCN(c3ccncc3)CC4)cc21)S(=O)(=O)c1c(Cl)cccc1Cl` (centres unmarked) [IND_CC-321, 2,6-Dichloro-N-methyl-N-[6-(9-pyridin-4-yl-3,9-diazaspiro[5.5]undecane-3-carbonyl)-2,3-dihydro-1H-inden-1-yl]-benzenesulfonic acid amide], the inhibition at 10 µM was found to be 95%. In the case of `Cn1ccc2c(S(=O)(=O)N3CCC4(CCN(C(=O)c5ccc6c(c5)C(NC(=O)c5ccccc5Cl)CC6)CC4)CC3)cccc21` (centres unmarked) [IND_CC-612, 2-Chloro-N-[6-[9-[(1-methyl-1H-indol-4-yl)sulfonyl]-3,9-diazaspiro[5.5]undecane-3-carbonyl]-2,3-dihydro-1H-inden-1-yl]-benzamide], the inhibition at 10 µM was determined as 65%. As to `Cc1nc(CN2CCC3(CC2)CCN(C(=O)c2ccc4c(c2)C(NC(=O)c2ccccc2Cl)CC4)C3)c[nH]1` (centres unmarked) [IND_CC-554, 2-Chloro-N-[6-[8-[(2-methyl-1H-imidazol-4-yl)-methyl]-2,8-diazaspiro[4.5]decane-2-carbonyl]-2,3-dihydro-1H-inden-1-yl]-benzamide], the inhibition at 10 µM stood at 73%.
